According to patent US12168653B2, “Sulfonamide derivates as NLRP3 inhibitors” (Inflazome Limited, priority 2018, dated 2024):
Counter-ions that a name gives are not always drawn.

tested on: NLRP3; assay: THP-1 cells pyroptosis assay (LPS/nigericin, resazurin read-out); assay type: cell-based; conditions: Homo sapiens, THP-1, read-out: THP IC50
Description: THP-1 cells (ATCC #TIB-202) were grown in RPMI containing L-glutamine (Gibco #11835) supplemented with 1 mM sodium pyruvate (Sigma #S8636) and penicillin (100 units/ml)/streptomycin (0.1 mg/ml) (Sigma #P4333) in 10% Fetal Bovine Serum (FBS) (Sigma #F0804). The cells were routinely passaged and grown to confluency (˜10^6 cells/ml). On the day of the experiment, THP-1 cells were harvested and resuspended into RPMI medium (without FBS). The cells were then counted and viability (>90%) checked by Trypan blue (Sigma #T8154). Appropriate dilutions were made to give a concentration of 625,000 cells/ml. To this diluted cell solution was added LPS (Sigma #L4524) to give a 1 μg/ml Final Assay Concentration (FAC). 40 μl of the final preparation was aliquoted into each well of a 96-well plate. The plate thus prepared was used for compound screening.
The following method step-by-step assay was followed for compound screening. • 1. Seed THP-1 cells (25,000 cells/well) containing 1.0 μg/ml LPS in 40 μl of RPMI medium (without FBS) in 96-well, black walled, clear bottom cell culture plates coated with poly-D-lysine (VWR #734-0317) • 2. Add 5 μl compound (8 points half-log dilution, with 10 μM top dose) or vehicle (DMSO 0.1% FAC) to the appropriate wells • 3. Incubate for 3 hrs at 37° C., 5% CO2 • 4. Add 5 μl nigericin (Sigma #N7143) (FAC 5 μM) to all wells • 5. Incubate for 1 hr at 37° C., 5% CO2 • 6. At the end of the incubation period, spin plates at 300×g for 3 mins and remove supernatant • 7. Then add 50 μl of resazurin (Sigma #R7017) (FAC 100 μM resazurin in RPMI medium without FBS) and incubate plates for a further 1-2 hrs at 37° C. and 5% CO2 • 8. Plates were read in an Envision reader at Ex 560 nm and Em 590 nm • 9. IC50 data is fitted to a non-linear regression equation (log inhibitor vs response-variable slope 4-parameters) 96-Well Plate Map

`COc1cc(-c2ccc3c(c2CC(=O)NS(=O)(=O)N(C)C2CCN(C)C2)CCC3)ccn1` (centres unmarked) [Example 1, 2-(5-(2-Methoxypyridin-4-yl)-2,3-dihydro-1H-inden-4-yl)-N—(N-methyl-N-(1-methylpyrrolidin-3-yl)sulfamoyl)acetamide, Potassium Salt] and `COc1cc(-c2cc(F)cc(C(C)C)c2CC(=O)NS(=O)(=O)N(C)C2CCN(C)C2)ccn1` (centres unmarked) [Example 8, 2-(4-Fluoro-2-isopropyl-6-(2-methoxypyridin-4-yl)phenyl)-N—(N-methyl-N-(1-methylpyrrolidin-3-yl)sulfamoyl)acetamide, Potassium Salt] cannot be ordered by IC50: < 5 µM for the first, < 5 µM for the second.

`CCN(CC)CCCS(=O)(=O)NC(=O)Cc1c(-c2ccnc(OC)c2)cc(F)cc1C(C)C` [Example 3, N-((3-(Diethylamino)propyl)sulfonyl)-2-(4-fluoro-2-isopropyl-6-(2-methoxypyridin-4-yl)phenyl)acetamide, Potassium Salt] and `COc1cc(-c2cc(F)cc(C(C)C)c2CC(=O)NS(=O)(=O)CCCC(C)(C)O)ccn1` [Example 10, 2-(4-Fluoro-2-isopropyl-6-(2-methoxypyridin-4-yl)phenyl)-N-((4-hydroxy-4-methylpentyl)sulfonyl)acetamide, Potassium Salt] cannot be ordered by IC50: < 5 µM for the first, < 10 µM for the second.

`COc1cc(-c2cc(F)cc(C(C)C)c2CC(=O)NS(=O)(=O)C[C@]23CCC(CC2=O)C3(C)C)ccn1` [Example 7, N-((((1S)-7,7-Dimethyl-2-oxobicyclo[2.2.1]heptan-1-yl)methyl)sulfonyl)-2-(4-fluoro-2-isopropyl-6-(2-methoxypyridin-4-yl)phenyl)acetamide, Potassium Salt] and `COc1cc(-c2cc(F)cc(C(C)C)c2CC(=O)NS(=O)(=O)C[C@@]23CC[C@@H](C[C@H]2O)C3(C)C)ccn1` [Example 9, 2-(4-Fluoro-2-isopropyl-6-(2-methoxypyridin-4-yl)phenyl)-N-((((1R,2R,4S)-2-hydroxy-7,7-dimethylbicyclo[2.2.1]heptan-1-yl)methyl)sulfonyl)acetamide, Potassium Salt] cannot be ordered by IC50: < 10 µM for the first, < 5 µM for the second.

same assay, conditions: Homo sapiens; THP-1 cells, 1 μg/ml LPS, 3 hrs compound, 5 μM nigericin 1 hr; NLRP3 inhibitory activity; read-out: THP IC50

`COc1cc(-c2cc(F)cc(C(C)C)c2CC(=O)NS(=O)(=O)CC2(C#N)CCCCC2)ccn1` [Example 11] and `CCN(CC)CCCS(=O)(=O)NC(=O)Cc1c(-c2ccnc(OC)c2)ccc2c1CCC2` [Example 2, N-((3-(Diethylamino)propyl)sulfonyl)-2-(5-(2-methoxypyridin-4-yl)-2,3-dihydro-1H-inden-4-yl)acetamide] cannot be ordered by IC50: < 1 µM for the first, < 10 µM for the second.

`CCN(CC)CCCS(=O)(=O)NC(=O)Cc1c(C(C)C)cc(F)cc1C(C)C` [Example 6, N-((3-(Diethylamino)propyl)sulfonyl)-2-(4-fluoro-2,6-diisopropylphenyl)acetamide] and `CC(C)c1cc(F)cc(C(C)C)c1CC(=O)NS(=O)(=O)N(C)C1CCN(C)C1` (centres unmarked) [Example 5, 2-(4-Fluoro-2,6-diisopropylphenyl)-N—(N-methyl-N-(1-methylpyrrolidin-3-yl)sulfamoyl)acetamide] cannot be ordered by IC50: < 10 µM for the first, < 5 µM for the second.

For `CCN(CC)CCCS(=O)(=O)NC(=O)Cc1c2c(cc3c1CCC3)CCC2` [Example 4, N-((3-(Diethylamino)propyl)sulfonyl)-2-(1,2,3,5,6,7-hexahydro-s-indacen-4-yl)acetamide], the IC50 was < 10 µM.
